The results in this text go back to US10335392B2, “Cyclic compounds useful as modulators of TNF α” (BRISTOL-MYERS SQUIBB COMPANY, priority 2015, dated 2019).

SMILES strings stand for the structures.

Sequence of TNFα (P01375 77-233): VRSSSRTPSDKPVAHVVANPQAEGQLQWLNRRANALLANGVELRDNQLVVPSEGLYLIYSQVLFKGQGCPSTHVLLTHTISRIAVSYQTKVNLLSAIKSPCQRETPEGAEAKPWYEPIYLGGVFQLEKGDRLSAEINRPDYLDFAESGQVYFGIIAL

In the assay the target is TNFα (Homo sapiens (Human), UniProt P01375). In words: TNF induced HEK-Blue assay. The assay is classed as cell-based. The conditions noted are these: TNFα 0.5 ng/ml; HEK-Blue-CD40L cells, NF-kB-driven secreted alkaline phosphatase reporter; 18 h. Here is the method:
TNF or CD40L-Induced HEK-Blue Assay
Test compounds serially diluted in DMSO were plated in an assay plate (LABCYTE, Cat. # LP-0200) at final concentrations ranging from 0.004 μM to 25 μM. TNFα (final concentration 0.5 ng/ml) or CD40L (final concentration 30 ng/ml) in assay buffer [DMEM, 4.5 g/l glucose (Gibco, Cat. 21063-029), 10% FBS (Sigma, F4135), 1% Penicillin-Streptomycin (Gibco, Cat. 15140-122), 1% Anti-Anti (Gibco, Cat. 15240-112) and 2 mM L-glutamine (Gibco, Cat. 25030-081)] was then added to the assay plate. After a 30 minute pre-incubation at 37° C. and 5% CO2, HEK-Blue™-CD40L cells (INVIVOGEN, Cat. Code hkb-cd40) containing a NF-kB-driven secreted alkaline phosphatase reporter gene were seeded into the assay plate at a density of 20,000 cells per well. This plate was then incubated for 18 h at 37° C. and 5% CO2. Secreted alkaline phosphatase expression was measured using QUANTI-Blue™ (INVIVOGEN, Cat. Code rep-qb1) according to manufacturer's specifications and the assay plate was read on a PerkinElmer Envision at 620 nm.
Inhibition data for the test compound over a range of concentrations was plotted as percentage inhibition of the test compound (100%=maximum inhibition). IC50 values were determined after correcting for background [(sample read−mean of low control)/(mean of high control−mean of low control)] where by the low control is DMSO without stimulation and high control is DMSO with stimulation. The IC50 is defined as the concentration of test compound which produces 50% inhibition and was quantified using the 4 parameter logistic equation to fit the data.
Turning to `CNC(=O)c1ccc(-c2cc3c(cc2F)nc2n3[C@@H](c3ccccc3OC(F)F)[C@H]3C[C@@H]23)cn1` [Example 8, 5-((1aR,8R,8aS)-8-(2-(difluoromethoxy)phenyl)-4-fluoro-1,1a,8,8a-tetrahydrobenzo[d]cyclopropa[3,4]pyrrolo[1,2-a]imidazol-5-yl)-N-methylpicolinamide], the IC50 was in the range of 1000 to 10000 nM.

Regarding `O=C1CN(c2ncc(-c3cc4c(cc3F)nc3n4[C@@H](c4ccccc4OC(F)F)[C@H]4C[C@@H]34)cn2)CCN1` [Example 9, 4-(5-((1aR,8R,8aS)-8-(2-(difluoromethoxy)phenyl)-4-fluoro-1,1a,8,8a-tetrahydrobenzo[d]cyclopropa[3,4]pyrrolo[1,2-a]imidazol-5-yl)pyrimidin-2-yl)piperazin-2-one], the IC50 was less than 1000 nM.

In the case of `N#Cc1ccc(-c2cc3c(cc2F)nc2n3[C@@H](c3ccccc3OC(F)F)[C@H]3C[C@@H]23)cn1` [Example 10, 5-((1aR,8R,8aS)-8-(2-(difluoromethoxy)phenyl)-4-fluoro-1,1a,8,8a-tetrahydrobenzo[d]cyclopropa[3,4]pyrrolo[1,2-a]imidazol-5-yl)picolinonitrile], the IC50 lay within 1000 to 10000 nM.

In turn, `CC(C)(O)c1ccc(-c2cc3c(cc2F)nc2n3[C@@H](c3ccccc3OC(F)F)[C@H]3C[C@@H]23)cc1` [Example 12, 2-(4-((1aR,8R,8aS)-8-(2-(difluoromethoxy)phenyl)-4-fluoro-1,1a,8,8a-tetrahydrobenzo[d]cyclopropa[3,4]pyrrolo[1,2-a]imidazol-5-yl)phenyl)propan-2-ol] returned an IC50 of less than 1000 nM.

On to `CC(C)(O)c1ccc(-c2cc3c(cc2F)nc2n3[C@@H](c3ccccc3OC(F)F)[C@H]3C[C@@H]23)cn1` [Example 13, 2-(5-((1aR,8R,8aS)-8-(2-(difluoromethoxy)phenyl)-4-fluoro-1,1a,8,8a-tetrahydrobenzo[d]cyclopropa[3,4]pyrrolo[1,2-a]imidazol-5-yl)pyridin-2-yl)propan-2-ol], for which the IC50 is less than 1000 nM.

`OC1(c2ncc(-c3cc4c(cc3F)nc3n4[C@@H](c4ccccc4OC(F)F)[C@H]4C[C@@H]34)cn2)COC1` [Example 14, 3-(5-((1aR,8R,8aS)-8-(2-(difluoromethoxy)phenyl)-4-fluoro-1,1a,8,8a-tetrahydrobenzo[d]cyclopropa[3,4]pyrrolo[1,2-a]imidazol-5-yl)pyrimidin-2-yl)oxetan-3-ol] returned an IC50 of less than 1000 nM.

`O=S1(=O)CCN(c2ncc(-c3cc4c(cc3F)nc3n4[C@@H](c4ccccc4OC(F)F)[C@H]4C[C@@H]34)cn2)CC1` [Example 15, 4-(5-((1aR,8R,8aS)-8-(2-(difluoromethoxy)phenyl)-4-fluoro-1,1a,8,8a-tetrahydrobenzo[d]cyclopropa[3,4]pyrrolo[1,2-a]imidazol-5-yl)pyrimidin-2-yl) thiomorpholine 1,1-dioxide] came in with an IC50 of less than 1000 nM.

In turn, `CC(C)(O)Cn1cc(-c2cc3c(cc2F)nc2n3[C@@H](c3ccccc3OC(F)F)[C@H]3C[C@@H]23)cn1` [Example 16, 1-(4-((1aR,8R,8aS)-8-(2-(difluoromethoxy)phenyl)-4-fluoro-1,1a,8,8a-tetrahydrobenzo[d]cyclopropa[3,4]pyrrolo[1,2-a]imidazol-5-yl)-1H-pyrazol-1-yl)-2-methylpropan-2-ol] displayed an IC50 of 1000 to 10000 nM.

In turn, `CC(C)(C)OC(=O)N1CC=C(c2cc3c(cc2F)nc2n3[C@@H](c3ccccc3OC(F)F)[C@H]3C[C@@H]23)CC1` [Example 17, tert-butyl 4-((1aR,8R,8aS)-8-(2-(difluoromethoxy)phenyl)-4-fluoro-1,1a,8,8a-tetrahydrobenzo[d]cyclopropa[3,4]pyrrolo[1,2-a]imidazol-5-yl)-3,6-dihydropyridine-1(2H)-carboxylate] gave an IC50 of 1000 to 10000 nM.

In turn, `O=C(O)CN1CCN(c2ncc(-c3cc4c(cc3F)nc3n4[C@H](c4ccccc4OC(F)F)[C@@H]4C[C@H]34)cn2)CC1` [Example 18, 2-(4-(5-((1aS,8S,8aR)-8-(2-(difluoromethoxy)phenyl)-4-fluoro-1,1a,8,8a-tetrahydrobenzo[d]cyclopropa[3,4]pyrrolo[1,2-a]imidazol-5-yl)pyrimidin-2-yl)piperazin-1-yl)acetic acid] yielded an IC50 of less than 1000 nM.

`NC(=O)c1ccc(-c2cc3c(cc2F)nc2n3[C@H](c3ccccc3OC(F)F)[C@@H]3C[C@H]23)cn1` [Example 19, 5-((1aS,8S,8aR)-8-(2-(difluoromethoxy)phenyl)-4-fluoro-1,1a,8,8a-tetrahydrobenzo[d]cyclopropa[3,4]pyrrolo[1,2-a]imidazol-5-yl)picolinamide]: the IC50 lay within 1000 to 10000 nM.

Turning to `NC(=O)c1ccc(-c2cc3c(cc2F)nc2n3[C@@H](c3ccccc3OC(F)F)[C@@H]3C[C@H]23)cn1` [Example 22, 5-((1aS,8R,8aR)-8-(2-(difluoromethoxy)phenyl)-4-fluoro-1,11a,8,8a-tetrahydrobenzo[d]cyclopropa[3,4]pyrrolo[1,2-a]imidazol-5-yl)picolinamide], the concentration for half-maximal inhibition (IC50) was less than 1000 nM.

For the compound `CC(C)(O)c1ncc(-c2cc3c(cc2F)nc2n3[C@@H](c3ccccc3Oc3ccccc3)[C@@H]3C[C@H]23)cn1` [Example 27, 2-(5-((1aS,8R,8aR)-4-fluoro-8-(2-phenoxyphenyl)-1,1a,8,8a-tetrahydrobenzo[d]cyclopropa[3,4]pyrrolo[1,2-a]imidazol-5-yl)pyrimidin-2-yl)propan-2-ol], the IC50 was 1000 to 10000 nM.

For the compound `CC(C)(O)c1ncc(-c2cc3c(cc2F)nc2n3[C@H](c3ccccc3Oc3ccccc3)[C@@H]3C[C@H]23)cn1` [Example 28, 2-(5-((1aS,8S,8aR)-4-fluoro-8-(2-phenoxyphenyl)-1,1a,8,8a-tetrahydrobenzo[d]cyclopropa[3,4]pyrrolo[1,2-a]imidazol-5-yl)pyrimidin-2-yl)propan-2-ol], the IC50 was in the range of 1000 to 10000 nM.

With `CC(C)(O)c1ncc(-c2cc3c(cc2F)nc2n3[C@@H](c3ccccc3Oc3ccccc3F)[C@@H]3C[C@H]23)cn1` [Example 29, 2-(5-((1aS,8R,8aR)-4-fluoro-8-(2-(2-fluorophenoxy)phenyl)-1,1a,8,8a-tetrahydrobenzo[d]cyclopropa[3,4]pyrrolo[1,2-a]imidazol-5-yl)pyrimidin-2-yl)propan-2-ol], the IC50 fell in the range of 1000 to 10000 nM.

In turn, `CC(C)(O)c1ncc(-c2cc3c(cc2F)nc2n3[C@H](c3ccccc3Oc3ccccc3F)[C@@H]3C[C@H]23)cn1` [Example 30, 2-(5-((1aS,8S,8aR)-4-fluoro-8-(2-(2-fluorophenoxy)phenyl)-1,1a,8,8a-tetrahydrobenzo[d]cyclopropa[3,4]pyrrolo[1,2-a]imidazol-5-yl)pyrimidin-2-yl)propan-2-ol] yielded an IC50 of 10000 to 25000 nM.

Compound `Fc1cc2nc3n(c2cc1-c1cnc(N2CCOCC2)nc1)[C@@H](c1ccccc1OC(F)F)[C@@H]1C[C@H]31` [Example 31, 4-(5-((1aS,8R,8aR)-8-(2-(difluoromethoxy)phenyl)-4-fluoro-1,1a,8,8a-tetrahydrobenzo[d]cyclopropa[3,4]pyrrolo[1,2-a]imidazol-5-yl)pyrimidin-2-yl) morpholine] gave an IC50 of less than 1000 nM.

Compound `Fc1cc2nc3n(c2cc1-c1cnc(N2CCOCC2)nc1)[C@H](c1ccccc1OC(F)F)[C@@H]1C[C@H]31` [Example 32, 4-(5-((1aS,8S,8aR)-8-(2-(difluoromethoxy)phenyl)-4-fluoro-1,1a,8,8a-tetrahydrobenzo[d]cyclopropa[3,4]pyrrolo[1,2-a]imidazol-5-yl)pyrimidin-2-yl) morpholine] yielded a half-inhibitory concentration (IC50) of 1000 to 10000 nM.

Consider `O=C(O)CN1CCN(c2ncc(-c3cc4c(cc3F)nc3n4[C@@H](c4ccccc4OC(F)F)[C@@H]4C[C@H]34)cn2)CC1` [Example 33, 2-(4-(5-((1aS,8R,8aR)-8-(2-(difluoromethoxy)phenyl)-4-fluoro-1,1a,8,8a-tetrahydrobenzo[d]cyclopropa[3,4]pyrrolo[1,2-a]imidazol-5-yl)pyrimidin-2-yl)piperazin-1-yl)acetic acid], for which the IC50 is less than 1000 nM.

Regarding `CC(C)(O)c1ncc(-c2cc3c(cc2F)nc2n3[C@@H](c3ccccc3OCc3ccncc3)[C@@H]3C[C@H]23)cn1` [Example 34, 2-(5-((1aS,8R,8aR)-4-fluoro-8-(2-(pyridin-4-ylmethoxy)phenyl)-1,1a,8,8a-tetrahydrobenzo[d]cyclopropa[3,4]pyrrolo[1,2-a]imidazol-5-yl)pyrimidin-2-yl)propan-2-ol], the IC50 was 1000 to 10000 nM.

In the case of `CC(C)(O)c1ncc(-c2cc3c(cc2F)nc2n3[C@H](c3ccccc3OCc3ccncc3)[C@@H]3C[C@H]23)cn1` [Example 35, 2-(5-((1aS,8S,8aR)-4-fluoro-8-(2-(pyridin-4-ylmethoxy)phenyl)-1,1a,8,8a-tetrahydrobenzo[d]cyclopropa[3,4]pyrrolo[1,2-a]imidazol-5-yl)pyrimidin-2-yl)propan-2-ol], the IC50 lay within 10000 to 25000 nM.

Usually IC50 stands for the concentration at which inhibition is half-maximal. A low value points to higher potency.
